In patent US9707417B2, “Use of benzotropolone derivatives as UV absorbers and antioxidants and their use in sunscreens and/or cosmetic compositions” (BASF SE, priority 2008, dated 2017):
Entries after “also recorded” stand apart in the source; their conditions may differ.

Tests used:
[1] = Measurement of photostability (irradiation of highly diluted solution of the UV-filter, analysis by UV-spectroscopy); assay type: physicochemical; conditions: for Half time: photostability, diluted solution in ethanol, first order kinetic model, half-life under conditions of COLIPA standard sun irradiation
Procedure: The method used for assessment of photostability is based on the irradiation of a highly diluted solution of the UV-filter.
The analysis after certain doses of irradiation is performed by UV-spectroscopy. The concentration of the UV-absorber in ethanol is adjusted to values between 1·10^−5 and 1·10^−6 mol/l, such that the absorbance of the solution in cuvette of 1 cm optical path length is ≦than 0.2. The mutual protection of filter molecules can be excluded under such conditions.
Prior to irradiation of a sample the UVB-intensity at the sample position is measured with a UV-radiometer (RM-12, Dr. Gröbel Electronic GmbH).
This radiometer is calibrated by comparison with a measurement of the spectral output of the metal halide lamp (including light guide and cut-off filter) using a wavelength-resolved radiometer (Gamma C11).
Therefore the relationship of the reading of the RM-12 radiometer and the corresponding spectral output of the lamp is known, and one is able to determine the wavelength-resolved intensities by measuring the UVB-intensity. By changing the distance between the end of the light guide and the cuvette, the UVB-intensity can be varied in the range of 100 μW/cm^2 and 4500 μW/cm^2.
For sample irradiation the highest possible intensity was used (4.5 mW/cm^2 UVB-intensity measured with the Macam 103 radiometer).
The irradiation time is varied from 0 to 180 min.
The dose the sample has received after 180 min corresponds to 60 MED.
During irradiation the sample was stirred. After certain intervals of irradiation, the samples were analyzed in a UV-spectrometer (Perkin Elmer, Lambda 16).
From the absorbance values at each dose of irradiation the concentration may be calculated using Lambert-Beer's law.
In order to get the half-life of the substance, a first order kinetic model was fitted to the experimental data. Since the UV-spectrum of the lamp and the UV-spectrum of the COLIPA standard sun are known, one can calculate the respective half-life of the UV-absorber under conditions of COLIPA standard sun irradiation [Bernd Herzog, Stefan Müller, Myriam Sohn, Uli Osterwalder, “New Insight and Prediction of Photostability of Sunscreens”, SÖFW Journal 133, 26-36 (2007)].

[2] = UV shielding properties (UV spectra in ethanol); assay type: physicochemical; design: Absorption maximum 1 λmax / Absorption maximum 2 λmax: unit not given here; conditions: for Absorption maximum 1 A^1%1 cm / Absorption maximum 1 λmax / Absorption maximum 2 A^1%1 cm / Absorption maximum 2 λmax: UV spectra in ethanol
Excerpt: The UV shielding properties of the benzotropolone derivatives were investigated by measuring their UV spectra in ethanol.
In the following table the investigated absorption maxima (λmax) together with the corresponding A^1%1cm values are listed.

[3] = DPPH assay (antioxidative / antiradical activity); assay type: biochemical; conditions: comparison with vitamin C, vitamin E, resveratrol
Excerpt: For tests of antioxidative activity, the DPPH assay is used. DPPH (2,2-Diphenyl-1-picryl-hydrazyl) is a stable radical, which absorbs in its radical form at 515 nm. Upon reduction by an antioxidant (AH), the absorption disappears: DPPH.+AH→DPPH—H+A. (1)
The rate of reaction (1) can be rather different for different antioxidants.
In the test, the ratio of the molar concentrations of the antioxidant and DPPH is varied (this ratio is named “EC”=efficient concentration), and the concentration of DPPH in the equilibrium state is measured for each ratio. […] The smaller the EC50 value, the more efficient is the antioxidant. Thus, the inverse, 1/EC50, can be used to quantify the antiradical power.
Solutions of DPPH and the antioxidants in ethanol are prepared separately and added together for starting the reaction (0.5 cm^3 of a 250 μM antioxidant solution is added to 2.5 cm^3 of a 100 μM DPPH solution). The absorption is measured using a Perkin Elmer Lambda 20 spectrophotometer.

Solubility in water = assay type: physicochemical

Row | SMILES | photostability (in words) [1] | Half time [1] | Absorption maximum 1 A^1%1 cm [2] | Absorption maximum 1 λmax [2] | Absorption maximum 2 A^1%1 cm [2] | Absorption maximum 2 λmax [2] | Solubility in water (Solubility in water) | shielding properties in the UV region (in words) [2] | antioxidant/radical scavenging power compared to state-of-the-art antioxidants (in words) [3]
1 | COC(=O)c1cc(O)c(=O)c2c(O)c(O)c(OC)cc2c1 [Compound B-5] | extraordinary high inherent photostability | 116.5 h | 1008 | 308 | 399 | 403 |  | high shielding properties in the UV region; also recorded: UV-C/UV-B shielding properties as well as UV-A shielding properties | 
2 | O=C(O)c1cc(O)c(=O)c2c(O)c(O)c(O[C@@H]3O[C@H](CO)[C@@H](O)[C@H](O)[C@H]3O)cc2c1 [Compound B-59] |  |  | 497 | 300 | 174 | 388 |  |  | 
3 | CCCCCCCC/C=C\CCCCCCCCOc1cc2cc(C(=O)OC)cc(O)c(=O)c2c(O)c1O [Compound B-32] | high photostability | 16.6 h | 574 | 310 | 203 | 404 |  |  | 
4 | O=C(O)CCCCCOc1cc2cc(C(=O)O)cc(O)c(=O)c2c(O)c1O [Compound B-19] | high photostability | 40.1 h | 726 | 308 | 236 | 397 |  |  | 
5 | COC(=O)c1cc(O)c(=O)c2c(O)c(O)c(OCCCCCC(=O)O)cc2c1 [Compound B-15] |  |  | 754 | 310 | 269 | 398 |  |  | 
6 | Cc1cc2cc(C(=O)NCCCCP(=O)(O)O)cc(O)c(=O)c2c(O)c1O [Compound B-49] |  |  | 601 | 278 | 270 | 381 |  |  | 
7 | COC(=O)c1cc(O)c(=O)c2c(O)c(O)c(O[C@@H]3O[C@H](CO)[C@@H](O)[C@H](O)[C@H]3O)cc2c1 [Compound B-7] |  |  | 593 | 287 | 246 | 399 |  |  | 
8 | COC(=O)c1cc(O)c(=O)c2c(O)c(O)c(C)cc2c1 [Compound B-6] |  |  | 997 | 280 | 447 | 396 |  | high shielding properties in the UV region; also recorded: UV-C/UV-B shielding properties as well as UV-A shielding properties | 
9 | COC(=O)c1cc(O)c(=O)c2c(O)c(O)c(O[C@@H]3O[C@H](COC(C)=O)[C@H](OC(C)=O)[C@H](OC(C)=O)[C@H]3OC(C)=O)cc2c1 [Compound B-37] |  |  | 394 | 285 | 88 | 393 |  |  | 
10 | O=c1c(O)cccc2cc(O)c(O)c(O)c12 [Compound B-1] | high photostability | 31.5 h | 935 | 281 | 1179 | 305 |  | high shielding properties in the UV region; also recorded: high absorption in the UV-C and UV-B region | 
11 | CCCCCCCCCCCCOC(=O)c1cc(O)c(=O)c2c(O)c(O)c(OCCCCCCCCCCCC)cc2c1 [Compound B-53] |  |  | 533 | 309 | 193 | 402 |  |  | 
12 | COC(=O)c1cc(O)c(=O)c2c(O)c(O)c(O[C@@H]3O[C@H](CO)[C@H](O)[C@H](O)[C@H]3O)cc2c1 [Compound B-16] |  |  | 550 | 288 | 204 | 397 |  |  | 
13 | COc1cc2cc(C(=O)O)cc(O)c(=O)c2c(O)c1O [Compound B-4] | high photostability | 16.6 h | 864 | 307 | 305 | 396 |  | high shielding properties in the UV region; also recorded: UV-C/UV-B shielding properties as well as UV-A shielding properties | 
14 | CCCCc1ccc2c(CCCC)c(O)c(O)c(O)c2c(=O)c1O [Compound B-55] |  |  | 788 | 311 |  |  |  |  | 
15 | COC(=O)c1cc(O)c(=O)c2c(O)c(O)ccc2c1 [Compound B-3] | extraordinary high inherent photostability | 61.9 h | 1007 | 277 | 516 | 395 |  | high shielding properties in the UV region; also recorded: UV-C/UV-B shielding properties as well as UV-A shielding properties | 
16 | CCOC(=O)CCCCCOc1cc2cc(C(=O)O)cc(O)c(=O)c2c(O)c1O [Compound B-36] | high photostability | 22.8 h | 750 | 309 | 250 | 398 |  |  | 
17 | Cc1cc2cc(CO)cc(O)c(=O)c2c(O)c1O [Compound B-61] |  |  | 711 | 295 |  |  |  |  | 
18 | COc1cc2cc(CO)cc(O)c(=O)c2c(O)c1O [Compound B-50] |  |  | 1027 | 305 |  |  |  |  | 

Continued, in another order:

Row | photostability (in words) [1] | Half time [1] | Absorption maximum 1 A^1%1 cm [2] | Absorption maximum 1 λmax [2] | Absorption maximum 2 A^1%1 cm [2] | Absorption maximum 2 λmax [2] | Solubility in water (Solubility in water) | SMILES | shielding properties in the UV region (in words) [2] | antioxidant/radical scavenging power compared to state-of-the-art antioxidants (in words) [3]
19 |  |  | 799 | 281 | 383 | 406 |  | COC(=O)c1cc(O)c(=O)c2c(O)c(O)cc(CCC(=O)O)c2c1 [Compound B-62] |  | 
20 |  |  | 575 | 310 | 210 | 403 |  | CCCCCCCCCCCCOc1cc2cc(C(=O)OCCCCCCCC)cc(O)c(=O)c2c(O)c1O [Compound B-33] |  | 
21 |  |  | 437 | 280 | 176 | 399 |  | COC(=O)c1cc(O)c(=O)c2c(O)c(O)cc(CCO)c2c1 [Compound B-52] |  | 
22 |  |  | 1142 | 309 |  |  |  | CCc1ccc2c(CC)c(O)c(O)c(O)c2c(=O)c1O [Compound B-54] |  | 
23 |  |  | 611 | 310 | 231 | 404 |  | CCCCCCCCCCCCOc1cc2cc(C(=O)OC)cc(O)c(=O)c2c(O)c1O [Compound B-35] |  | 
24 | high photostability | 51.3 h | 573 | 310 | 208 | 404 | 10.467% | COC(=O)c1cc(O)c(=O)c2c(O)c(O)c(OCCCO[C@@H]3O[C@H](CO)[C@@H](O)[C@H](O)[C@H]3O)cc2c1 [Compound B-13] |  | more effective in the DPPH assay than the state-of-the-art antioxidant resveratrol
25 |  |  | 748 | 282 | 333 | 398 |  | CCCCCCCCOC(=O)c1cc(O)c(=O)c2c(O)c(O)c(C)cc2c1 [Compound B-34] |  | 
26 |  |  | 1065 | 281 | 477 | 393 |  | Cc1cc2cc(C(=O)O)cc(O)c(=O)c2c(O)c1O [Compound B-31] |  | 
27 |  |  | 804 | 306 | 302 | 401 |  | COC(=O)c1cc(O)c(=O)c2c(OC)c(O)c(OCCO)cc2c1 [Compound B-45] |  | 
28 | high photostability | 33.6 h | 966 | 276 | 460 | 400 |  | O=C(O)c1cc(O)c(=O)c2c(O)c(O)ccc2c1 [Compound B-2] | high shielding properties in the UV region; also recorded: UV-C/UV-B shielding properties as well as UV-A shielding properties | 
